Results on one compound are retold here after ChEMBL document CHEMBL5728427, “Apoptosis signal-regulating kinase 1 inhibitors and methods of use thereof” (2021).

Each structure is given as a SMILES string.

In this test the target is T1, Mitogen-activated protein kinase kinase kinase 5 (Homo sapiens, UniProt Q99683).
T1 sequence (Q99683 whole entry): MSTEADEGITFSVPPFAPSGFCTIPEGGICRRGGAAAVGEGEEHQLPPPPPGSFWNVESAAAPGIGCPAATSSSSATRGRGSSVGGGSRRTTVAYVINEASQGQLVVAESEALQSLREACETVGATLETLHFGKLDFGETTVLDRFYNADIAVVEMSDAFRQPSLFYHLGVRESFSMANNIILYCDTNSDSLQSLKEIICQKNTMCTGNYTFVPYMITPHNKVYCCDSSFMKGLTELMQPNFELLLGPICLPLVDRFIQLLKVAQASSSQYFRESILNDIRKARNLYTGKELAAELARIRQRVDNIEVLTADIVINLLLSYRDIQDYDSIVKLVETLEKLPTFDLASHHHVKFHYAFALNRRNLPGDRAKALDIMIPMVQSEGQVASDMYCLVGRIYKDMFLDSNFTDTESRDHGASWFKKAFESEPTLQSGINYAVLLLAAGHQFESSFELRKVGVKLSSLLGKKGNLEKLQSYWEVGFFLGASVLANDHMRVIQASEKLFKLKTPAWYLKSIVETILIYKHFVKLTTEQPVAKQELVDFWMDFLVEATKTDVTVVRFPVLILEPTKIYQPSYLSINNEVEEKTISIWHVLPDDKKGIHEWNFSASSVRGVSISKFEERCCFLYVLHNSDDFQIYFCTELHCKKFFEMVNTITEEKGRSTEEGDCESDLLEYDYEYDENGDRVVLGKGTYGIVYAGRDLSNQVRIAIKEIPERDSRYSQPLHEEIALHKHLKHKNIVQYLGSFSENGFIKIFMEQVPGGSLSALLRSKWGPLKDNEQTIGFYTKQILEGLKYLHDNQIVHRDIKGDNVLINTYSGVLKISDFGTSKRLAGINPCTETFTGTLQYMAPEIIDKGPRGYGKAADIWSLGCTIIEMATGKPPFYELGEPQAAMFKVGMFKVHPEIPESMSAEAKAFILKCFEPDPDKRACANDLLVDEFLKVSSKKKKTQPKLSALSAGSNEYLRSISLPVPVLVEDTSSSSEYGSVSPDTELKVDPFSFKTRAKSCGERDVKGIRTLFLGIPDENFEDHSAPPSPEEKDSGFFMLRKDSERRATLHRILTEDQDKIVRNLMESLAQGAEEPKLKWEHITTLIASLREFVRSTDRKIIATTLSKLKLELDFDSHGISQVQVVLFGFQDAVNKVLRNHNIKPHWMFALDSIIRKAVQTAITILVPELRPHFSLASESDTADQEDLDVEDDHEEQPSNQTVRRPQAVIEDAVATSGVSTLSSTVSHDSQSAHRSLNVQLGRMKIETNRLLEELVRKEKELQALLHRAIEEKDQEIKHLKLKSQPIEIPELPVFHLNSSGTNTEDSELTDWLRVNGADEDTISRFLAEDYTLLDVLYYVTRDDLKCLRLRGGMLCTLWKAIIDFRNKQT
The test can be described thus: HTRF KinEASE Assay: ASK1 was purchased from Thermofisher (Catalogue #PV4011), ATP was purchased from Sigma (Catalogue #A7699), HTRF® KinEASE™ Assay System was obtained from Cisbio (Bedford, Mass.). ½ Area plate was purchased from Perkin Elmer (Catalogue ##6005560). HTRF® KinEASE™-STK is a generic method for measuring serine/threonine kinase activities using a time-resolved fluorescence resonance energy transfer (TR-FRET) immunoassay. The IC50 value for each compound was determined in the presence of compound (various concentration from 0 to 10 μM) and a fixed amount of ATP and peptide substrates. The test compound, 1 uM STK3 peptide substrate, and 5 nM of ASK1 kinase are incubated with kinase reaction buffer containing 50 mM HEPES pH 7.5, 0.01% BRIJ-35, 10 mM MgCl2, and 1 mM EGTA for 30 minutes. 100 uM ATP is added to start kinase reaction and incubated for 3 hours. The STK3-antibody labeled with Eu3+-Cryptate and 125 nM streptavidin-XL665 are mixed in a single addition with stop reagents provided by the Cisbio kit used to stop the kinase reaction. Fluorescence is detected using an Envision Multilabeled 2014 reader from PerkinElmer. The Fluorescence is measured at 615 nm (Cryptate) and 665 nm (XL665) and a ratio of 665 nm/615 nm is calculated for each well. The resulting TR-FRET is proportional to the phosphorylation level. Staurosporine was used as the positive control.

Consider `Cc1cc(F)c(C(=O)Nc2cccc(-n3cnnc3)n2)cc1-n1cnc(C2CC2)c1`, for which the IC50 was greater than 1000 nM.

As usually defined, the IC50 is the midpoint of a concentration-inhibition curve.
